In patent US20090325992A1, “COMPOUND HAVING CYCLIC GROUP BOUND THERETO THROUGH SPIRO BINDING AND USE THEREOF” (ONO PHARMACEUTICAL CO., LTD., priority 2006, published 2009):
Where two headings read alike, the source gives them in different places.

Columns and labels:
[1] = system: CHL/IU (cell line derived from a Chinese hamster lung); assay: Phospholipidosis detecting system using fluorescent labeling phospholipid analog (NBD-PE); assay type: cell-based
Experimental: Investigation with Phospholipidosis Detecting System using Fluorescent Labeling Phospholipidosis Analog under Severity Condition (1) Phospholipid Accumulation Measurement 100 μL/well as required (1 dose 2 wells) of cell suspension of CHL/IU (cell line derived from a Chinese hamster lung) (7×10^4 cells/mL) prepared by MEM (minimum essential medium) culture medium was added to a 96-well plate (96-well clear-bottom plate), and cultured for about 24 hours. After culture, the supernatant of the 96-well plate was removed, and the 100 μL/well compounds of each concentration dissolved and suspended in an MEM including 25 μmol/L nitrobenzoxadiazole dipalmitoyl phosphatidylethanolamine (NBD-PE) (hereinafter abbreviated as a NPD-PE medium) were added and treated for about 48 hours. The treatment concentrations of each compound were set to be 5, 50, 100 and 200 μM. The positive control substance was set to be amiodarone hydrochloride, and the treatment concentrations were set to be 1.25, 2.5, 5, 10 and 20 μM. In addition, 5-well untreated controls (only MEM) and 5-well NBD-PE controls (made by means of adding a 1/100 amount of DMSO to the NBD-PE culture medium) were set per compound, and cultured in the same manner. After finishing the culture, the cultures were washed twice with phosphate buffered saline (hereinafter abbreviated as PBS) (−) 100 μL/well, and the MEM (100 μL) was added to all of the treatment wells including two empty wells for WST-1 background controls and cultured for about a half hour. The fluorescence intensities of each well were measured by using a microplate reader (manufactured by Molecular Devices Inc., SPECTRA max M2; the excitation wavelength 485 nm/fluorescence wavelength 535 nm). (2) Analysis Using the average values of each dose×2 wells, a phospholipid increase rate (%) to the NBD-PE control was calculated by using the following calculating formula: Rate of increase of phospholipid accumulation (%)=100×{(test compound fluorescence intensity−non-treated control fluorescence intensity)/(NBD-PE control fluorescence intensity−non-treated control fluorescence intensity)} [Equation 2] (3) Cytotoxicity Assay 96-well plate measured in the phospholipid accumulation measurement was measured by means of Plate Reader (manufactured by Molecular Devices Inc., SPECTRA max M2) with the main wavelength of 450 nm and the correct wavelength of 690 nm to calculate a Pre value. An amount of 5 μL/well of Premix WS T-1 was added to each of the 96-hole plates by which Pre measurement was conducted. After culture for 2 to 4 hours, the 96-well plate was measured as well as the Pre measurement to calculate an Aft value. Then, the background control value was subtracted from the each measured value. A value which was calculated by subtracting the Pre value from the Aft value was used, then the cell growth rate (%) was calculated by using the following calculating formula: Cell growth rate (%)=100×[(test substance OD)/(NBD-PE control OD)] [Equation 3] (4) Determination A test dose that indicated value of 25% or more of the maximum phospholipid accumulation increase rate of amiodarone which was the positive control was determined as positive. In addition, the dose whose cell growth rate was equal to or less than 50% in the cytotoxicity assay was not used for determination of existence or nonexistence of a phospholipidosis inductive effect.

[2] = rat, in vivo, iv, 1 mg/kg
Experimental: (§1) Measurement of Maximum Plasma Level (Cmax) and Stationary State Distribution Volume (Vss)
(§2) A compound to be evaluated is weighed, dissolved in WellSolve (trade name; manufactured by Celeste Corporation) which is heated to 60° C. and adjusted to 20 mg/mL; thereafter, the test compound is diluted by 10 times with distilled water for injection, and further diluted by 2 times with saline solution, by which intravenously administered solution is eventually made. A compound to be evaluated is dissolved in WellSolve which is heated to 60° C. and adjusted to 50 mg/mL; thereafter, the compound to be evaluated is diluted with distilled water for injection and adjusted to 1 mg/mL. Five compounds (one set) were mixed in the same amount and adjusted to final concentration of 0.2 mg/mL per one compound, by which orally administered solution is eventually made. […] The administration is conducted under fasting conditions; water is freely ingested. In the case of intravenous administration, a 0.35 mL of blood sample is taken from cervical vein by using Heparinized Syringe at 5 minutes, 15 minutes, 30 minutes, 1 hour, 2 hours, 4 hours, 6 hours, 8 hours, and 24 hours after administration. […] The obtained blood is stored in ice, and after centrifugation at 12,000 rpm for 3 minutes, blood plasma is fractionated. In the case of intravenous administration, the blood plasma sample preserved at a temperature of −80° C. is dissolved; inner standard solution (100 μL) and acetonitrile (2 mL) are added to the blood plasma sample (100 μL) and stirred, and the sample is centrifuged at 2,500 rpm for 10 minutes.
(§3) After the supernatant centrifuged is evaporated to dryness by means of a centrifugal concentrator, 67% dimethyl sulfoxide solution (150 μL) is added to the residue and dissolves them again and 20 μL of the solution is analyzed by means of LC/MS/MS.
(§4) Measurement device: Waters 2795 (manufactured by Waters Corporation) Analytical column: Unison UK-C18, 3.0 μm particle size, 2.0 mm×30 mm (manufactured by Imtakt Corporation) Analytical column temperature: Room temperature Flow rate: 200 μL/min Moving bed: 5 mM IPC-PFAA-7 solution/acetonitrile (9/1→1/9)
(§5) Measurement device: Quatro micro API (manufactured by Micromass Communications Inc.) Scan type: MPM
(§6) The monitor ion which was suitable for each sample was selected.
(§7) A portion of the compound to be intravenously administered was subjected to the following treatment. The blood plasma sample preserved at a temperature of −80° C. is dissolved; inner standard solution (50 μL) and acetonitrile (1 mL) are added to the blood plasma sample (50 μL) and stirred, and the sample is centrifuged at 3,000 rpm for 10 minutes. After the supernatant is evaporated to dryness by means of a centrifugal concentrator, the residue was redissolved in water/acetonitrile (1/1) and the solution is analyzed by means of LC/MS/MS under the following conditions.
(§8) Measurement device: 1200 series system (manufactured by Agilent Technologies) Analytical column: Asahipak OOD-50 2D, 2×150 mm (manufactured by Showa Denko K.K.) Analytical column temperature: Room temperature Moving bed: 5 mM IPC—PFAA-7 solution/acetonitrile (gradient) Flow rate: 200 μL/min

[3] = target: T1, CXCR4 (human T cell strain CEM cells) (Homo sapiens, UniProt P61073); assay: Inhibition of binding human SDF-1 to CEM cells (125I-SDF-1); conditions: 4° C., 60 minutes
T1 construct: a human T cell strain in which CXCR4 is known to be expressed; endogenous in cells; host or cells: CEM cells (human T cell strain)
Experimental: Specifically, as a system of screening a compound that inhibits the binding between SDF-1 and CXCR4, for example a system of measuring the binding between iodine-labeled SDF-1 and a human T cell strain in which CXCR4 is known to be expressed is operable.
Study for Inhibition of Binding Human SDF-1 to CEM Cells
To human T cell strain CEM cells in a binding buffer (containing HEPES and BSA), the test compound and ^125I-SDF-1 (PerkinElmer) were added and the mixture was incubated at 4° C. for 60 minutes. The reacted CEM cells were rapidly filtrated with a GF/B membrane filter plate (Packard) to adsorb. The plate was washed with phosphate buffered saline (hereinafter abbreviated to PBS) three times and then dried. Microscint+20 (Packard) was added thereto. An amount of the radioactivity bound to the CEM cells was measured using Top Count (Packard) and inhibition (%) of the test compound was calculated according to the following equation:
Inhibition={(Et−Ea)/(Et−Ec)}×100 [Equation 1]
Et: Amount of radioactivity when the test compound is not added,
Ec: Amount of radioactivity when non-radioactive SDF-1 (Pepro Tech) is added in an amount of 1,000 times as much as ^125I-SDF-1 as a test compound, and
Ea: Amount of radioactivity when the test compound is added.

[4] = Artificial lipid membrane binding using Biacore S51 system
Experimental: Artificial Lipid Membrane Binding Account by using Biacore® S51 System
10 mM of 1,2-dioleoyl-sn-glycero-3-phosphate monosodium salt (hereinafter abbreviated as DOPA) chloroform solution was evaporated to dryness by means of an aspirator, and 0.6 mL of PBS/5% dimethyl sulfoxide (hereinafter abbreviated as DMSO) was added. The chloroform solution was fully suspended by means of a vortex mixer, and the freezing and thawing were repeated for 5 times. Liposome was created by means of a liposome preparation instrument (manufactured by Avestin Inc.) and two syringes, and was diluted to 0.5 mM with PBS/5% DMSO just prior to immobilization.
(2) Measurement Compound Preparation
38 μl of 1×PBS is added to 2 μl of a DMSO solution (10 mM), and further the 360 μl of 1×PBS/5% DMSO was added and the 50 μM of final concentration in PBS/5% DMSO was prepared and measured.
All of the following analysis used Biacore® S51 system and the measurement conditions were set by Biacore S51 Control Soft.
The measurement temperature was set to be 37° C., and PBS/5% DMSO (pH 7.4 or 6.0) was used as a buffer. Series S Sensor Chip L1 was used for a sensor chip. DOPA was immobilized in one of the measuring spots on the sensor surface and the central spot was used as a reference.
Immobilization of liposome was conducted at a flow rate of 10 μL/min for about 3 minutes and then the compound was added at a flow rate of 30 μL/min and the interaction was measured. The measurement conditions are as follows:
Assay buffer: PBS/5% DMSO (pH 7.4) Measurement temperature: 37° C. Sensor chip: Series S Sensor Chip L1 Flow rate: 10 μL/min at the time of the liposome immobilization; 30 μL/min at the time of the measurement of interaction with the compound Regeneration: 20 mM CHAPS (3-[(3-cholamidopropyl)dimethylammonio]-1-propanesulfonate), isopropylalcohol/aqueous 50 mM sodium hydroxide solution=40/60 (volume ratio) mixture solution (60 seconds)
The data processing was conducted by means of method of Abdiche et al., (Analytical biochemistry, 328, 233-243 (2004)) by using Biacore S51 Evaluation Soft.
Regarding the value of binding response (RU) in which the value of reference was subtracted, it was divided by a sample molecular weight after minute error of the DMSO concentration included in the sample solution was corrected. In addition, the value obtained here was divided by an amount of capture at the time of the cycle because the value obtained here was proportional to the amount of capture of the liposome and the value was multiplied by a million to be considered as a corrected value (Corrected value=1,000,000×RU (test compound)/molecular quantity (test compound) RU (liposome)).
The compound wherein a value of the binding response after the correction was 150 or more was determined as positive.

[5] = Measurement of maximum plasma level (Cmax) and stationary state distribution volume (Vss); conditions: male, Crl:CD(SD), rat, iv, 1 mg/kg
Experimental: as §1, §2, §3, §4, §5, §6, §7, §8

T1 sequence (P61073 whole entry): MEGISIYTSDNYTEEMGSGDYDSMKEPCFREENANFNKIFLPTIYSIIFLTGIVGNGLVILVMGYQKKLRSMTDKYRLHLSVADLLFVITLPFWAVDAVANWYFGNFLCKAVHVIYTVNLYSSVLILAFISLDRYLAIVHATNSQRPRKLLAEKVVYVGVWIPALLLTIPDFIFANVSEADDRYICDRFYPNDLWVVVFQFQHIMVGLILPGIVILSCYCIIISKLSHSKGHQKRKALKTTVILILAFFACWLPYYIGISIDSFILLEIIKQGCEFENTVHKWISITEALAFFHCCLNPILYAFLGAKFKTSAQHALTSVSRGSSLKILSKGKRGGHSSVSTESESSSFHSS

## CC(C)CN1CCC2(CC1)CCN(CCCn1ccnc1CN(CCCC(=O)O)Cc1ncc[nH]1)C2 [Example 22(3), 4-[(1H-imidazol-2-ylmethyl)({1-[3-(8-isobutyl-2,8-diazaspiro[4.5]deca-2-yl)propyl]-1H-imidazol-2-yl}methyl)amino]butanoic acid]
[1]
  Determination (phospholipidosis, NBD-PE system): Negative
[2]
  Distribution volume (L/kg) (stationary state distribution volume, Vss): 0.90 L/kg

## CCC(CC)N1CCC2(CCN(CCCn3ccnc3CN(Cc3ccc(OCC(=O)O)cc3)Cc3ncc[nH]3)C2)CC1 [Example 43, [4-({[(1-{3-[8-(1-ethylpropyl)-2,8-diazaspiro[4.5]deca-2-yl]propyl}-1H-imidazol-2-yl)methyl](1H-imidazol-2-ylmethyl)amino}methyl)phenoxy]acetic acid]
[3]
  IC50: 4 nM
[1]; CHL/IU cells, compound dose 200 μM, about 48 hours, relative to NBD-PE control
  Rate of increase of phospholipid accumulation (%) (compound dose: 200 μM): 16%
[1]; positive = 25% or more of the maximum increase rate of amiodarone
  Determination (phospholipidosis, NBD-PE system): Negative
[4]; DOPA liposome, 50 μM compound, PBS/5% DMSO pH 7.4, 37° C., corrected value
  Value of binding response (RU): 36.1 RU
[4]; positive = corrected binding response 150 or more
  Determination (artificial lipid membrane binding): Negative
[5]
  Vd: 0.65 L/kg
